# Columns and labels:
# Format in all cases: cell-based, human
# NF-κB [1] = test: NF-κB luciferase reporter assay in THP-1 cells; conditions: DDR1b-overexpressing cells, 12 hours
# Protocol: For the results shown in FIG. 7A, mock-transduced or DDR1b-overexpressing THP-1 cells were transfected with 10 μg of the NF-κB-Luc plasmid and 5 μg of pSV-β-galactosidese plasmid DNA (Promega, Madison, Wis.) per 100-mm tissue culture plate using Effectene Transfection Reagent (Qiagen, Valencia, Calif.), according to the manufacture's protocol. After a 12-hour incubation, cells were rinsed with phosphate buffered saline (PBS) and then incubated with 10 nM PMA on collagen-coated plates in the presence of absence of SB203580, PD98059, CAPE or dimethlysulfoxide (DMSO) for another 12 hours. Cells were collected and lysed using the Reporter Lysis Buffer (Promega, Madison, Wis.), and luciferase activity and β-galactosidase activities were measured according to the protocol provided by the manufacturer. The resulting luciferase activity was corrected based on the β-galactosidase activity in the same cell extract. For the results shown in FIG. 7B, DDR1b-overexpressing THP-1 cells were transfected with 10 μg of the pGLM-ENH, or pGLM-MA1MA2 (Ueda et al., J. Bio. Chem. 272: 31092-9, 1997) and 5 μg of pSV-β-galactosidese plasmid DNA (Promega, Madison, Wis.) per 100-mm tissue culture plate using Effectene Transfection Reagent (Qiagen, Valencia, Calif.) according to the manufacture's protocol. […] Cells were collected and lysed using the Reporter Lysis Buffer (Promega, Madison, Wis.), and luciferase activity and β-galactosidase activities were measured according to the protocol provided by the manufacturer. […]
# Mock-transduced or DDR1b-overexpressing THP-1 cells were transfected with 10 μg of the NF-κB-Luc plasmid, pGL-ENH, or pGL-MA1MA2 and 5 μg of pSV-β-galactosidase plasmid DNA (Promega, Madison, Wis.) per 100-mm tissue culture plate using Effectene Transfection Reagent (Qiagen, Valencia, Calif.) according to the manufacture's protocol. […] Luciferase activity and β-galactosidase activities were measured according to the protocol provided by the manufacturer. […]
# NF-κB [2] = test: Nuclear translocation of NF-κB by EMSA; conditions: DDR1b-overexpressing cells on collagen-coated plates
# Protocol: Nuclear translocation of NF-κB was examined by EMSA. Nuclear extracts were prepared by a method previously reported (Ueda et al., J. Biol. Chem. 272:31092, 1997), and aliquots were frozen at −80° C. For EMSA, end-labeled ^32P-oligonucleotide probes corresponding to the NF-KB binding site of the Ig κ-chain (5′-[…]-3′) (SEQ ID NO: 15) or MCP-1 (A2 site; 5′-[…]-3′) (SEQ ID NO: 16) gene were used. Each probe was incubated with 5 μg of nuclear extracts in 20 μl of binding cocktail (50 mM Tris-HCl, pH 7.4, 25 MM MgCl2, 0.5 mM DTT, 50% glycerol) at 4° C. for 15 minutes. The DNA-protein complexes were resolved on a 5% polyacrylanide gel. The dried gels were exposed to X-ray films.
# THP-1 cells [3] = test: Cytokine and chemokine release from PMA-treated THP-1 cells by ELISA; conditions: DDR1b-overexpressing THP-1 cells, PMA, collagen-coated plates, 48 hours
# Protocol: The production of DDR1a- or 1b-overexpressing THP-1 cells was previously described (Kamohara et al., FASEB J. 15:2724, 2001). Briefly, the human monocytic leukemic cell line, THP-1, was transduced with control retrovirus containing the vector only (mock-transduced) or retrovirus expressing DDR1a or DDR1b. THP-1 cells transduced by each virus were selected with G418, and cloned by limiting dilution. The cloned THP-1 cells were maintained in RPMI 1640 medium supplemented with 100 μg/ml gentamycin and 10% FCS (complete medium). Cells were plated at 1×10^6/ml and treated with PMA (10 nM) for variable times on uncoated or collagen-coated tissue culture plates for quantification of cytokine or chemokine release.
# In addition, the concentration of MCP-1 in the culture supernatant of each cell line was measured by ELISA. The concentration of MCP-1 was measured in the Lymphokine Testing Laboratory, Clinical Services Program, SAIC-Frederick (Frederick, Md.) by using an enzyme-linked immunosorbent assay (ELISA) kit (R&D Systems, Minneapolis, Minn.) specific for the chemokine.
# In addition, the concentrations of IL-1β, IL-8, and MIP-1α in the culture supernatants of each cell line were quantified by ELISA (FIG. 6). The concentration of IL-1β, IL-8, and MIP-1α were measured in the Lymphokine Testing Laboratory, Clinical Services Program, SAIC-Frederick (Frederick, Md.) by using enzyme-linked immunosorbent assay (ELISA) kits (R&D Systems, Minneapolis, Minn.) specific for each human cytokine and chemokine. […]
# p38 MAP kinase = test: Phosphorylation of p38 MAP kinase in PMA-treated THP-1 cells, Western blotting; conditions: DDR1b-overexpressing cells treated before PMA-treatment
# Protocol: Parental, mock, DDR1a- or DDR1b-overexpressing THP-1 cells were plated at 5×10^6/ml on uncoated tissue culture plates and stimulated with PMA (10 nM) for 24 hours, and then starved in RMPI 1640 without FCS for 10 hours. Subsequently cells were washed three times with PBS, and then incubated in the presence of 50 μg/ml collagen type I for various times.
# Ten million cells were lysed on ice for 20 minutes in a buffer containing 50 mM NaCl, 20 mM Tris-HCl, 50 mM sodium fluoride, 30 mM Na4P2O7, 5 mM EGTA, 3 mM sodium orthovanadate, 1% Triton X-100, 1 mg/ml leupeptin, 1 mM PMSF, 1 mg/ml aprotinin, 1 mg/ml pepstatinA and 100 μM sodium orthovanadate treated with H2O2. A lysis buffer containing 150 mM NaCl, 50 mM HEPES, 1% Triton-X 10% glycerol, 1 mM sodium fluoride, 1 mM EDTA, 2 mM sodium orthovanadate, 1 mg/ml leupeptin, 1 mM PMSF, 1 mg/ml aprotinin, 1 mg/ml pepstatinA and 100 μM sodium orthovanadate treated with H2O2, was also used for immunoprecipitation with anti-Shc Ab. The lysates were spun in a microcentrifuge for 20 minutes and the supernatants were collected. […]
# Eluted proteins were analyzed on 8% polyacrylamide gels by SDS-PAGE and transferred electrophoretically to nitrocellulose membranes at 150 mA for 1 hour by a semi-dry system. […] To detect phosphorylated or nonphosphorylated p38 MAP kinase or ATF-2, 20 μl of cell lysates were directly mixed with 20 μl of sample buffer and then analyzed.
# Downstream signaling molecules that may play a role in the up-regulation of HLA-DR in collagen-activated PMA-treated DDR1b-overexpressing cells were identified in the following manner. […] Phosphorylation of p38 MAP kinase was first detected 30 minutes after collagen activation of DDR1b-overexpressing cells and the level of phosphorylation increased thereafter. […] Phosphorylation of p38 MAP kinase was not detected in DDR1a-overexpressing cells up to 120 minutes. […] Phosphorylation of other members of the MAP kinase family, ERK1, ERK2, and JNK could not be detected in collagen-activated PMA-treated DDR1b-overexpressing cells. […]
# THP-1 cells [4] = test: Flow cytometry of HLA-DR, CD11c, CD14, CD40 on PMA-treated THP-1 cells
# Protocol: FIG. 5 is a graph showing the effects of collagen-activation of two DDR1 isoforms on the expression of CD11c, CD14, and CD40. Each cell line was plated at 5×10^6 cells/ml on either uncoated or collagen-coated plates and incubated at 37° C. for 24 hours in the presence of 10 nM PMA. Anti-1β integrin antibody (10 μg/ml) was used to block the effect of 1β integrin-collagen interaction. The percentage of CD11c, CD14, or CD40-positive cells is shown. Data are presented as the mean ±SD from three independent experiments.
# Parental, mock, DDR1a-overexpressing, or DDR1b overexpressing THP-1 cells were plated at 5×10^6 cells/ml on either uncoated or collagen-coated plates and incubated at 37° C. for 24 or 48 hours in the presence of 10 nM PMA. One hundred thousand cells were suspended in 50 μl of cold PBS containing 0.1% NaN3, […] BSA and 200 μg/ml human IgG in a Falcon 2052 tube, and incubated for 10 minutes on ice. One μg of mouse monoclonal antibody against CD11c, CD14 CD40, or HLA-DR, or control mouse IgG were added to each tube and the cells were incubated for another 15 minutes on ice. The cells were washed with PBS, and then incubated with 1 μg of FITC-conjugated goat anti-mouse IgG for 15 minutes on ice. At the end of incubation, propidium iodide (PI) (100 μM) was added to each tube. The cells were washed by PBS, and subsequently analyzed by using a FACS scan (Becton Dickinson). Dead cells, determined by the incorporation of PI, were gated out. Results were processed by using the Cellquest software (Becton Dickinson).
# The cells were then rinsed three times with RPMI 1640 containing 10% FCS, and incubated either with the p38 MAP kinase inhibitor SB203580, the MEK (MAP or ERK kinase) ½ inhibitor PD98059, or dimethylsulfoxide (DMSO) for 30 minutes, followed by an additional 12 hour incubation in the presence of 10 nM PMA plus collagen. The expression of HLA-DR was analyzed by flow cytometry.
# DDR1 mRNA = DDR1 mRNA expression in PBMC by Northern blotting; conditions: 8 hours, TNF-α 5 ng/ml, IL-1β 10 ng/ml, IFN-γ 50 U/ml, GM-CSF 10 ng/ml, LPS 1 μg/ml, PHA 5 μg/ml
# Protocol: PMN and PBMC were maintained at a density of 5×10^6 cells/ml in the complete medium in six-well tissue culture cluster (Coster, Cambridge, Mass.; 3 ml/well). Total RNA was extracted from each culture by using TRIZOL® Reagent. PolyA mRNA was purified on Oligotex columns (Qiagen, Valencia, Calif.). Northern blot analysis was performed as described (Yoshimura, J. Immunol. 150:5025, 1993), except that ULTRAhyb (Ambion) was used. A human DDR1 cDNA (757-bp) was obtained by PCR from a U-105 human glioblastoma cell line cDNA library and was ligated into the EcoRI/HindIII site of the pBluescript (Stratagene, La Jolla, Calif.). The sense primer was 5′-[…]-3′ (SEQ ID NO: 2; corresponding to residues between 68 and 87 in the nucleotide sequence of the trkE cDNA, GenBank accession number X74979) and the antisense primer was 5′-[…]-3′ (SEQ ID NO: 3; corresponding to residues between 805 and 824 in the nucleotide sequence of the trkE cDNA).
# Freshly isolated PBMC expressed only a low level of DDR1 mRNA. The expression level was increased about eightfold when the cells were incubated in either RPMI 1640 or RPMI 1640 containing 10% FCS.
compound,measurement,setting,value
O=C(/C=C/c1ccc(O)c(O)c1)OCCc1ccccc1 [CAPE],increase in luciferase activity induced by PMA plus collagen,NF-κB [1],completely inhibited
same,increased NF-κB/DNA binding,NF-κB [2],completely abolished
same,collagen-induced up-regulation of IL-8 release,THP-1 cells [3],inhibited
same,collagen-induced up-regulation of MCP-1 release,THP-1 cells [3],inhibited
same,collagen-induced up-regulation of MIP-1α release,THP-1 cells [3],inhibited
"C[C@@H]1C[C@@H]([C@H](O)CC2CC(=O)NC(=O)C2)C(=O)[C@@H](C)C1 [CHX, cycloheximide, reference compound]",phosphorylation of p38 MAP kinase in response to collagen,p38 MAP kinase,completely inhibited
COc1cccc(-c2cc(=O)c3ccccc3o2)c1N [PD98059],expression of HLA-DR,"THP-1 cells [4]; collagen-activated PMA-treated DDR1b-overexpressing cells, 24 hours",no effect
same,collagen-induced up-regulation of IL-1β release,THP-1 cells [3],no effect
same,collagen-induced up-regulation of IL-8 release,THP-1 cells [3],no effect
same,collagen-induced up-regulation of MCP-1 release,THP-1 cells [3],no effect
same,collagen-induced up-regulation of MIP-1α release,THP-1 cells [3],no effect
"CCCCCCCCCCCCCC(=O)O[C@@H]1[C@@H](C)[C@@]2(O)[C@@H](C=C(CO)C[C@]3(O)C(=O)C(C)=C[C@@H]23)[C@@H]2C(C)(C)[C@]12OC(C)=O [PMA, phorbol 12-myristate 13-acetate, reference compound]",HLA-DR-positive cells,"THP-1 cells [4]; parental, mock, DDR1a- or DDR1b-overexpressing THP-1 cells, uncoated plates, 48 hours",26 to 28%
IL-1β: human recombinant interleukin-1β,level of DDR1 mRNA expression,DDR1 mRNA,further augmented

# Source: patent publication US7855076B2, “Use of discoidin domain receptor 1 (DDR1) and agents that affect the DDR1/collagen pathway” (The United States of America as represented by the …, priority 2002, dated 2010)
